IC50 data for 23 molecules are collected here from patent publication US11008317B2, “Triazolopyridine inhibitors of myeloperoxidase and/or EPX” (priority 2016, dated 2021).

In assay [1] the target is T1, myeloperoxidase (Homo sapiens, UniProt P05164).
T1 sequence (P05164 49-745): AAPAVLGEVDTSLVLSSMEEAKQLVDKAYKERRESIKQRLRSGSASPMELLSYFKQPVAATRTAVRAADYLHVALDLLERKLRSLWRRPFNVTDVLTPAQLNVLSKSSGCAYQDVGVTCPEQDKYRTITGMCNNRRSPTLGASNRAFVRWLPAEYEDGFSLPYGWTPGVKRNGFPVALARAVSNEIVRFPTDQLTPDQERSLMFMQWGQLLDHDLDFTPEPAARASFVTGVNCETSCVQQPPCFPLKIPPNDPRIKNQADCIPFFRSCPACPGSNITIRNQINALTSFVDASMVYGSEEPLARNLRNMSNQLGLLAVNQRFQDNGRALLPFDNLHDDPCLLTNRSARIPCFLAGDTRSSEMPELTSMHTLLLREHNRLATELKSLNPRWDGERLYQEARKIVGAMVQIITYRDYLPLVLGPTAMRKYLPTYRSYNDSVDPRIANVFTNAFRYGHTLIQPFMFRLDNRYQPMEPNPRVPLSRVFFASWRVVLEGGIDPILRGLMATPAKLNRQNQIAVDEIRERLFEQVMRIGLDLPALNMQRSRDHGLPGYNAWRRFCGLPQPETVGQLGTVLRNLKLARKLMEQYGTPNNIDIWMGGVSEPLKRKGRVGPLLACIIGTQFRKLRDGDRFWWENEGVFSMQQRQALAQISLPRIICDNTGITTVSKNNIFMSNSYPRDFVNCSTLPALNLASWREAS
Kind of assay: MPO Peroxidation Assay (Amplex Red Assay). The following applies: potency range class, read-out: Amplex Red Assay IC50 value. The format is biochemical.

Assay [2] deals with T1, myeloperoxidase. Nature of the assay: MPO Chlorination Assay (APF Assay). Format: biochemical. The following applies: potency range class, read-out: APF Assay IC50 value.

Molecules are shown by their SMILES. Counter-ions that a name gives are not always drawn.

`Nc1cc([C@H](CCCN2CCC(c3cccc(C(F)(F)F)c3)C(O)C2)c2ccccc2)c2nn[nH]c2n1` (stereo partly drawn) [Example 220, 1-[(4R)-4-{5-amino-3H-[1,2,3]triazolo [4,5-b]pyridin-7-yl}-4-phenylbutyl]-4-[3-(trifluoromethyl)phenyl]piperidin-3-ol]: the IC50 at myeloperoxidase [1] and on myeloperoxidase [2] was 101 to 999 nM each time.

Take `Nc1cc([C@H](CCCN2CCC(Cc3ccccc3)C2)c2ccccc2)c2nn[nH]c2n1` (stereo partly drawn) [Example 221, 7-[(1R)-4-(3-benzylpyrrolidin-1-yl)-1-phenylbutyl]-3H-[1,2,3]triazolo[4,5-b]pyridin-5-amine]: the IC50 at myeloperoxidase [1] and on myeloperoxidase [2] was 101 to 999 nM in each case.

As for `Nc1cc([C@H](CCCN2CCC3(CC2)NC(=O)Nc2ccccc23)c2ccccc2)c2nn[nH]c2n1` [Example 222, 1-[(4R)-4-{5-amino-3H-[1,2,3]triazolo [4,5-b]pyridin-7-yl}-4-phenylbutyl]-2′,3′-dihydro-1′H-spiro [piperidine-4,4′-quinazoline]-2′-one], the IC50 was in the range of 1000 to 10000 nM at myeloperoxidase [1] and 1 to 100 nM at myeloperoxidase [2].

In the case of `Nc1cc(C(CCO[C@H]2CC[C@H](c3ccccc3)CC2)c2ccccc2)c2nn[nH]c2n1` (stereo partly shown) [Example 223, 7-(1-phenyl-3-((4-phenylcyclohexyl)oxy)propyl)-3H-[1,2,3]triazolo[4,5-b]pyridin-5-amine], the IC50 at myeloperoxidase [1] and on myeloperoxidase [2] was 101 to 999 nM each time.

Turning to `Nc1cc(C(CC(O)CCc2ccccc2)c2ccccc2)c2nn[nH]c2n1` (stereo not shown) [Example 225, 1-(5-amino-3H-[1,2,3]triazolo[4,5-b]pyridin-7-yl)-1,5-diphenylpentan-3-ol, TFA], the IC50 at myeloperoxidase [1] and on myeloperoxidase [2] was 101 to 999 nM each time.

With `Nc1cc(C(CNCC(F)(F)c2ccccc2)c2ccccc2)c2nn[nH]c2n1` (stereo not shown) [Example 226, 7-(2-((2,2-difluoro-2-phenylethyl)amino)-1-phenylethyl)-3H-[1,2,3]triazolo[4,5-b]pyridin-5-amine], the IC50 at myeloperoxidase [1] and on myeloperoxidase [2] was 101 to 999 nM throughout.

As for `Nc1cc(C(CNCCc2ccccc2)c2ccccc2)c2nn[nH]c2n1` (stereo not shown) [Example 228, 7-{1-phenyl-2-[(2-phenylethyl)amino]ethyl}-3H-[1,2,3]triazolo[4,5-b]pyridin-5-amine], the IC50 at myeloperoxidase [1] and on myeloperoxidase [2] was 1000 to 10000 nM throughout.

As to `Nc1cc(C(Cc2ccc(O)cc2)c2ccccc2)c2nn[nH]c2n1` (stereo not shown) [Example 229, 4-(2-(5-amino-3H-[1,2,3]triazolo[4,5-b]pyridin-7-yl)-2-phenylethyl)phenol], the IC50 at myeloperoxidase [1] is 1 to 100 nM; at myeloperoxidase [2], 101 to 999 nM.

For the molecule `Nc1cc(C(Cc2cccc(O)c2)c2ccccc2)c2nn[nH]c2n1` (stereo not shown) [Example 230, 3-(2-(5-amino-3H-[1,2,3]triazolo[4,5-b]pyridin-7-yl)-2-phenylethyl)phenol], the results for the IC50 at myeloperoxidase [1] and at myeloperoxidase [2] were 1 to 100 nM and 1000 to 10000 nM, respectively.

For `Nc1cc(C(CCC(=O)Cc2ccccc2)c2ccccc2)c2nn[nH]c2n1` (stereo not shown) [Example 233, 5-(5-amino-3H-[1,2,3]triazolo[4,5-b]pyridin-7-yl)-1,5-diphenylpentan-2-one], the values for the IC50 at myeloperoxidase [1] and on myeloperoxidase [2] were 1 to 100 nM and 101 to 999 nM, respectively.

Take `Nc1cc(C(CCC(O)Cc2ccccc2)c2ccccc2)c2nn[nH]c2n1` (stereo not shown) [Example 234, 5-(5-amino-3H-[1,2,3]triazolo[4,5-b]pyridin-7-yl)-1,5-diphenylpentan-2-ol]: the IC50 on myeloperoxidase [1] and at myeloperoxidase [2] was 101 to 999 nM each time.

`Nc1cc(C(CCC(N)Cc2ccccc2)c2ccccc2)c2nn[nH]c2n1` (stereo not shown) [Example 235, 7-(4-amino-1,5-diphenylpentyl)-3H-[1,2,3]triazolo[4,5-b]pyridin-5-amine]: the IC50 on myeloperoxidase [1] and at myeloperoxidase [2] was 101 to 999 nM throughout.

In the case of `Nc1cc(C(CCN[C@@H](CO)CCCc2ccccc2)c2ccccc2)c2nn[nH]c2n1` (stereo partly drawn) [Example 236, (R)-2-((3-(5-amino-3H-[1,2,3]triazolo[4,5-b]pyridin-7-yl)-3-phenylpropyl)amino)-5-phenylpentan-1-ol], the IC50 lay within 1000 to 10000 nM on myeloperoxidase [1] and 1 to 100 nM at myeloperoxidase [2].

As to `Nc1cc([C@H](CCO)c2ccccc2)c2nn[nH]c2n1` [Example 237, (R)-3-(5-amino-3H-[1,2,3]triazolo[4,5-b]pyridin-7-yl)-3-phenylpropan-1-ol], the IC50 at myeloperoxidase [1] and at myeloperoxidase [2] was 101 to 999 nM throughout.

In the case of `Nc1cc([C@H](Cc2nc3cccc(-c4ccccc4)c3[nH]2)c2ccccc2)c2nn[nH]c2n1` [Example 238, (R)-7-(1-phenyl-2-(7-phenyl-1H-benzo[d]imidazol-2-yl)ethyl)-3H-[1,2,3]triazolo[4,5-b]pyridin-5-amine], the IC50 at myeloperoxidase [1] was 101 to 999 nM; at myeloperoxidase [2], 1 to 100 nM.

With `Nc1cc([C@H](Cc2nc3ccccc3s2)c2ccccc2)c2nn[nH]c2n1` [Example 239, (R)-7-(2-(benzo[d]thiazol-2-yl)-1-phenylethyl)-3H-[1,2,3]triazolo[4,5-b]pyridin-5-amine], the IC50 on myeloperoxidase [1] lay within 1 to 100 nM; at myeloperoxidase [2], 101 to 999 nM.

Turning to `Nc1cc([C@H](Cc2nc3ccccc3o2)c2ccccc2)c2nn[nH]c2n1` [Example 240, (R)-7-(2-(benzo[d]oxazol-2-yl)-1-phenylethyl)-3H-[1,2,3]triazolo[4,5-b]pyridin-5-amine], the 50% inhibitory concentration (IC50) at myeloperoxidase [1] and on myeloperoxidase [2] was 101 to 999 nM in each case.

`Nc1cc([C@H](Cc2nc3ccc(-c4ccccc4)cc3c(=O)[nH]2)c2ccccc2)c2nn[nH]c2n1` [Example 241]: the IC50 lay in the range of 101 to 999 nM on myeloperoxidase [1] and 1 to 100 nM at myeloperoxidase [2].

In the case of `Nc1cc([C@H](Cc2nc3ccc(-c4ccccc4)cc3s2)c2ccccc2)c2nn[nH]c2n1` [Example 242, (R)-7-(1-phenyl-2-(6-phenylbenzo[d]thiazol-2-yl)ethyl)-3H-[1,2,3]triazolo [4,5-b]pyridin-5-amine], the IC50 on myeloperoxidase [1] and on myeloperoxidase [2] was 1 to 100 nM throughout.

Consider `CN(C)C(=O)c1cccc(-c2cccc3[nH]c(C[C@H](c4ccccc4)c4cc(N)nc5[nH]nnc45)nc23)c1` [Example 243, (R)-3-(2-(2-(5-amino-3H-[1,2,3]triazolo [4,5-b]pyridin-7-yl)-2-phenylethyl)-1H-benzo[d]imidazol-4-yl)-N,N-dimethylbenzamide], for which the IC50 on myeloperoxidase [1] lay within 101 to 999 nM; on myeloperoxidase [2], 1 to 100 nM.

`Nc1cc([C@H](Cc2nc3c(-c4ccccc4)cc(Cl)cc3[nH]2)c2ccccc2)c2nn[nH]c2n1` [Example 244, (R)-7-(2-(6-chloro-4-phenyl-1H-benzo[d]imidazol-2-yl)-1-phenylethyl)-3H-[1,2,3]triazolo[4,5-b]pyridin-5-amine]: the results for the IC50 on myeloperoxidase [1] and at myeloperoxidase [2] were 101 to 999 nM and 1 to 100 nM, respectively.

With `NC(=O)c1cccc(-c2cccc3[nH]c(C[C@H](c4ccccc4)c4cc(N)nc5[nH]nnc45)nc23)c1` [Example 245, (R)-3-(2-(2-(5-amino-3H-[1,2,3]triazolo [4,5-b]pyridin-7-yl)-2-phenylethyl)-1H-benzo[d]imidazol-4-yl)benzamide], the IC50 was in the range of 101 to 999 nM at myeloperoxidase [1] and 1 to 100 nM on myeloperoxidase [2].

Take `Nc1cc([C@H](Cc2nc3c(-c4ccccc4)c(F)c(F)cc3[nH]2)c2ccccc2)c2nn[nH]c2n1` [Example 246, (R)-7-(2-(5,6-difluoro-4-phenyl-1H-benzo [d]imidazol-2-yl)-1-phenylethyl)-3H-[1,2,3]triazolo[4,5-b] pyridin-5-amine]: the IC50 is 101 to 999 nM at myeloperoxidase [1] and 1 to 100 nM at myeloperoxidase [2].

Broadly, the IC50 is the point on the concentration scale where inhibition reaches its midpoint.
